Measured values: patent US20240425500A1 (priority 2021, published 2024)

What was measured:
Pythium ultimum = Pythium ultimum / liquid culture (seedling damping off); assay type: cell-based; settings: Globisporangium ultimum, liquid culture in PDB, 24 °C, 2-3 days after application, read-out: control of Pythium ultimum (inhibition of growth, photometric) compared to untreated control
Summary of the method: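 Mycelia fragments and oospores from fresh liquid culture mixed into potato dextrose broth and added to compound in DMSO. Incubated at 24° C.; growth inhibition read photometrically 2–3 days after application.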

Phytophthora infestans = test: whole plant or invertebrate; assay type: in vivo; settings: in Solanum lycopersicum, foliar, read-out: control of Phytophthora infestans compared to untreated control
Plasmopara viticola = test: whole plant or invertebrate; assay type: in vivo; settings: foliar, read-out: control of Plasmopara viticola compared to untreated control

COC(=O)Nc1ccc(-c2cnc3ccc(C(=O)N(C)c4ccc(Cl)cc4)cn23)cn1 [Compound 4, methyl N-[5-[6-[(4-chlorophenyl)-methyl-carbamoyl]imidazo[1,2-a]pyridin-3-yl]-2-pyridyl]carbamate]
≥ 80%: inhibition at 20 ppm (Pythium ultimum) | pest or weed control at 200 ppm (Phytophthora infestans) | pest or weed control at 200 ppm (Plasmopara viticola)

COC(=O)Nc1ccc(-c2cnc3ccc(C(=O)N(c4ccc(Cl)cc4)C4CC4)cn23)cc1 [Compound 27, methyl N-[4-[6-[(4-chlorophenyl)-cyclopropyl-carbamoyl]imidazo[1,2-a]pyridin-3-yl]phenyl]carbamate]
≥ 80%: inhibition at 20 ppm (Pythium ultimum) | pest or weed control at 200 ppm (Phytophthora infestans) | pest or weed control at 200 ppm (Plasmopara viticola)

COC(=O)Nc1ccc(-c2cnc3ccc(C(=O)N(C)c4ccc(C#N)c(OC)c4)cn23)cn1 [Compound 51, methyl N-[5-[6-[(4-cyano-3-methoxy-phenyl)-methyl-carbamoyl]imidazo[1,2-a]pyridin-3-yl]-2-pyridyl]carbamate]
≥ 80%: inhibition at 20 ppm (Pythium ultimum) | pest or weed control at 200 ppm (Phytophthora infestans) | pest or weed control at 200 ppm (Plasmopara viticola)

CCc1cc(C(=O)N(C)c2ccc(F)cc2)cn2c(-c3ccc(NC(=O)OC)nc3)cnc12 [Compound 170, methyl N-[5-[8-ethyl-6-[(4-fluorophenyl)-methyl-carbamoyl]imidazo[1,2-a]pyridin-3-yl]-2-pyridyl]carbamate]
≥ 80%: inhibition at 20 ppm (Pythium ultimum) | pest or weed control at 200 ppm (Phytophthora infestans) | pest or weed control at 200 ppm (Plasmopara viticola)

COC(=O)Nc1ccc(-c2cnc3ccc(C(=O)N(CC#N)c4ccc(Cl)c(OC)c4)cn23)cn1 [Compound 90, methyl N-[5-[6-[(4-chloro-3-methoxy-phenyl)-(cyanomethyl)carbamoyl]imidazo[1,2-a]pyridin-3-yl]-2-pyridyl]carbamate]
≥ 80%: inhibition at 20 ppm (Pythium ultimum) | pest or weed control at 200 ppm (Phytophthora infestans) | pest or weed control at 200 ppm (Plasmopara viticola)

COC(=O)Nc1ccc(-c2cnc3c(OC)cc(C(=O)N(C)c4ccc(F)cc4)cn23)cn1 [Compound 84, methyl N-[5-[6-[(4-fluorophenyl)-methyl-carbamoyl]-8-methoxy-imidazo[1,2-a]pyridin-3-yl]-2-pyridyl]carbamate]
≥ 80%: inhibition at 20 ppm (Pythium ultimum) | pest or weed control at 200 ppm (Phytophthora infestans) | pest or weed control at 200 ppm (Plasmopara viticola)

COC(=O)Nc1ccc(-c2cnc3ccc(C(=O)N(CC#N)c4ccc(Cl)cc4)cn23)cc1 [Compound 31, methyl N-[4-[6-[(4-chlorophenyl)-(cyanomethyl)carbamoyl]imidazo[1,2-a]pyridin-3-yl]phenyl]carbamate]
≥ 80%: inhibition at 20 ppm (Pythium ultimum) | pest or weed control at 200 ppm (Phytophthora infestans) | pest or weed control at 200 ppm (Plasmopara viticola)

COC(=O)Nc1ccc(-c2cnc3ccc(C(=O)N(C)c4ccc(C#N)c(Cl)c4)cn23)cn1 [Compound 107, methyl N-[5-[6-[(3-chloro-4-cyano-phenyl)-methyl-carbamoyl]imidazo[1,2-a]pyridin-3-yl]-2-pyridyl]carbamate]
≥ 80%: inhibition at 20 ppm (Pythium ultimum) | pest or weed control at 200 ppm (Phytophthora infestans) | pest or weed control at 200 ppm (Plasmopara viticola)

COC(=O)Nc1ccc(-c2cnc3ccc(C(=O)N(C)c4ccc(Cl)cc4)cn23)cc1 [Compound 2, methyl N-[4-[6-[(4-chlorophenyl)-methyl-carbamoyl]imidazo[1,2-a]pyridin-3-yl]phenyl]carbamate]
≥ 80%: inhibition at 20 ppm (Pythium ultimum) | pest or weed control at 200 ppm (Phytophthora infestans) | pest or weed control at 200 ppm (Plasmopara viticola)

COC(=O)Nc1ccc(-c2cnc3ccc(C(=O)N(CCC#N)c4cccc(OC)c4)cn23)cn1 [Compound 149, methyl N-[5-[6-[2-cyanoethyl-(3-methoxyphenyl)carbamoyl]imidazo[1,2-a]pyridin-3-yl]-2-pyridyl]carbamate]
≥ 80%: inhibition at 20 ppm (Pythium ultimum) | pest or weed control at 200 ppm (Phytophthora infestans) | pest or weed control at 200 ppm (Plasmopara viticola)

CCN(C(=O)c1ccc2ncc(-c3ccc(NC(=O)OC)nc3)n2c1)c1ccc(F)c(F)c1 [Compound 105, methyl N-[5-[6-[(3,4-difluorophenyl)-ethyl-carbamoyl]imidazo[1,2-a]pyridin-3-yl]-2-pyridyl]carbamate]
≥ 80%: inhibition at 20 ppm (Pythium ultimum) | pest or weed control at 200 ppm (Phytophthora infestans) | pest or weed control at 200 ppm (Plasmopara viticola)

CC(=O)Nc1ccc(-c2cnc3ccc(C(=O)N(C)c4ccc(Cl)cc4)cn23)cn1 [Compound 3, 3-(6-acetamido-3-pyridyl)-N-(4-chlorophenyl)-N-methyl-imidazo [1,2-a]pyridine-6-carboxamide]
≥ 80%: inhibition at 20 ppm (Pythium ultimum) | pest or weed control at 200 ppm (Phytophthora infestans) | pest or weed control at 200 ppm (Plasmopara viticola)

COC(=O)Nc1ccc(-c2cnc3c(C)cc(C(=O)N(C)c4ccc(F)c(F)c4)cn23)cn1 [Compound 174, methyl N-[5-[6-[(3,4-difluorophenyl)-methyl-carbamoyl]-8-methyl-imidazo[1,2-a]pyridin-3-yl]-2-pyridyl]carbamate]
≥ 80%: inhibition at 20 ppm (Pythium ultimum) | pest or weed control at 200 ppm (Phytophthora infestans) | pest or weed control at 200 ppm (Plasmopara viticola)

COC(=O)Nc1ccc(-c2cnc3c(OC)cc(C(=O)N(C)c4ccc(Cl)cc4)cn23)cc1 [Compound 37, methyl N-[4-[6-[(4-chlorophenyl)-methyl-carbamoyl]-8-methoxy-imidazo[1,2-a]pyridin-3-yl]phenyl]carbamate]
≥ 80%: inhibition at 20 ppm (Pythium ultimum) | pest or weed control at 200 ppm (Phytophthora infestans) | pest or weed control at 200 ppm (Plasmopara viticola)

COC(=O)Nc1ccc(-c2cnc3ccc(C(=O)N(C)c4ccnc(OC)c4)cn23)cn1 [Compound 70, methyl N-[5-[6-[(2-methoxy-4-pyridyl)-methyl-carbamoyl]imidazo[1,2-a]pyridin-3-yl]-2-pyridyl]carbamate]
≥ 80%: inhibition at 20 ppm (Pythium ultimum) | pest or weed control at 200 ppm (Phytophthora infestans) | pest or weed control at 200 ppm (Plasmopara viticola)

COC(=O)Nc1ccc(-c2cnc3c(NC(C)=O)cc(C(=O)N(C)c4ccc(F)cc4)cn23)cn1 [Compound 100, methyl N-[5-[8-acetamido-6-[(4-fluorophenyl)-methyl-carbamoyl]imidazo[1,2-a]pyridin-3-yl]-2-pyridyl]carbamate]
≥ 80%: inhibition at 20 ppm (Pythium ultimum) | pest or weed control at 200 ppm (Phytophthora infestans) | pest or weed control at 200 ppm (Plasmopara viticola)

COC(=O)Nc1ccc(-c2cnc3ccc(C(=O)N(C)c4ccc(F)c(C)c4)cn23)cn1 [Compound 48, methyl N-[5-[6-[(4-fluoro-3-methyl-phenyl)-methyl-carbamoyl]imidazo[1,2-a]pyridin-3-yl]-2-pyridyl]carbamate]
≥ 80%: inhibition at 20 ppm (Pythium ultimum) | pest or weed control at 200 ppm (Phytophthora infestans) | pest or weed control at 200 ppm (Plasmopara viticola)
